US20200338028A1, “BENZENESULFONAMIDE DERIVATIVES AND METHOD FOR MODULATING LIPID RAFT” (Gongwin Biopharm Co., Ltd., priority 2017, published 2020)
Like-named read-outs stand apart in the source and are kept apart here.

Assays:
[1] = test system: DU-145 cells; experiment: SRB assay, anti-proliferative effect; format: cell-based; conditions: Homo sapiens; DU-145, SRB assay, FIG. 1A; read-out: IC50, inhibition of cell growth
Experimental: Two castration-resistant prostate cancer (CRPC) cell lines of PC-3 and DU-145 were cultured in RPMI 1640 medium with 5% FBS (v/v), penicillin (100 units/ml) and streptomycin (100 μg/ml). Cultures were maintained in a 37° C. incubator with 5% CO2, and adherent cultures were passaged using 0.05% trypsin-EDTA when they reached about 80% confluence. Prostate cells were from human tissue samples which were obtained following informed consent of the donors and after full review by the Ethics Review Committee at National Taiwan University Hospital. The prostate specimens were from males by transurethral resection of the prostate. All patients with prostatism histories were diagnosed to have benign prostate hyperplasia by rectal digital examination, transrectal sonography of prostate and urodynamic studies. […] SRB assay is an accurate and reproducible assay based upon quantitative SRB staining of cellular proteins, and the process for SRB assay was performed as follows. […] The absorbance of SRB was measured at a wavelength of 515 nm at the time of p-TSA addition (hereinafter referred to as time zero, TZ), and after additional incubation of DMSO (hereinafter referred to as control growth, CTL) or p-TSA (hereinafter referred to as Tx). The percentage of cell growth inhibition was calculated by the formula of [1−(Tx−TZ)/(CTL−TZ)]×100%. […]

[2] = test system: PC-3 cells; experiment: colony formation (clonogenic) assay; format: cell-based, human; conditions: for IC50: Homo sapiens, PC-3, 240 h, 10 days, FIG. 4F, read-out: IC50, growth inhibition, colony formation assay
Experimental: (§1) To assay the anchorage-dependent clonogenic effect, each individual PC-3 and DU-145 cells (150 cells/well) were seeded in a 6-well plate. After a 10-day treatment with p-TSA, the cell colonies were rinsed with phosphate-buffered saline (PBS), stained with 0.4% (w/v) crystal violet dissolved in 20% methanol, and lysed by 50 mM sodium citrate dissolved in 50% ethanol. The absorbance was read at a wavelength of 595 nm.
To further substantiate the role of Akt, the Myr-Akt overexpressed PC-3 cells were prepared with the method shown as follows. The plasmid encoding Myr-Akt, an N-terminally myristoylation signal-attached Akt, was a gift from Professor Mien-Chie Hung (The University of Texas, M.D. Anderson Cancer Center). For transfection, PC-3 cells were seeded into 60-mm tissue culture dishes with 30% confluence and grown for 24 h to 50-60% confluence. Each dish was washed with serum-free Opti-MEM (Life Technologies), and 2 ml of the serum-free Opti-MEM was then added. Aliquots containing Myr-Akt expression vector or a control plasmid in serum-free Opti-MEM were transfected into cells using Lipofectamine 2000 (Invitrogen) following the manufacturer's instructions. After incubation for 6 h at 37° C., cells were washed with serum-free Opti-MEM and incubated in 10% FBS-containing RPMI-1640 medium for 48 h. The cells were treated with or without p-TSA and then the related analyses were performed. […] Furthermore, the functional rescue of Myr-Akt was determined. […] However, overexpression of Myr-Akt had minimal effect on p-TSA-induced cyclin D1 down-regulation.

[3] = test system: DU-145 cells; experiment: colony formation (clonogenic) assay; format: cell-based, human; conditions: DU-145, 10 days, FIG. 1B
Experimental: as §1

[4] = test system: DU-145 cells; experiment: propidium iodide staining, cell cycle distribution by flow cytometry; format: cell-based, human; conditions: DU-145, 24 h, FIG. 2A
Experimental: (§2) Flow cytometric analysis was performed as follows. Cells were harvested by trypsinization, fixed with 70% (v/v) alcohol at 4° C. for 30 min and washed with PBS. After centrifugation, the cells were incubated in phosphate-citric acid buffer (0.2 mol/l NaHPO4, 0.1 mol/l citric acid, pH 7.8) for 30 min at room temperature. The cells were then centrifuged and resuspended with 0.5 ml propidium iodide (PI) solution containing Triton X-100 (0.1% v/v), RNase (100 μg/ml) and PI (80 μg/ml). DNA content was analyzed with the FACScan and CellQuest software (Becton Dickinson, Mountain View, Calif., United States).

[5] = test system: PC-3 cells; experiment: as above; format: cell-based, human; conditions: PC-3, 24 h, FIG. 2A
Experimental: as §2

[6] = test system: DU-145 cells; experiment: JC-1 staining, mitochondrial membrane potential; format: cell-based, human; conditions: DU-145, 24 h, JC-1, FIG. 2B
Experimental: (§3) Mitochondria generate the majority of ATP to synthesize bioactive components such as proteins, lipids and nucleotides for cell growth and proliferation. The stress onto mitochondria and interference with ATP production have shown to induce cell cycle arrest. Measurement of mitochondrial membrane potential (ΔΨm) was performed as follows. JC-1, a mitochondrial dye staining mitochondria in living cells in a membrane potential-dependent fashion, was used to determine the mitochondrial membrane potential (ΔΨm). PC-3 and DU145 cells were treated with or without p-TSA. Thirty minutes before the termination of incubation, the cells were incubated with JC-1 (final concentration of 5 μM) at 37° C. for 30 min. The cells were finally harvested, and the accumulation of JC-1 was determined using flow cytometric analysis. […] An increase in the permeability of the outer mitochondrial membrane that leads to the release of apoptogenic factors is the key to cell apoptosis. Mitochondrial membrane permeability is directly controlled by Bcl-2 family of proteins.

[7] = test system: PC-3 cells; experiment: JC-1 staining, mitochondrial membrane potential; format: cell-based, human; conditions: PC-3, 24 h, JC-1, FIG. 2B
Experimental: as §3

IC50 [1]: ~3000 µM
IC50 ([2]; PC-3 overexpressing constitutively active Myr-Akt): 680 ± 20 µM
IC50 ([2]; PC-3 without Myr-Akt overexpression): 580 ± 20 µM
SMILES: Cc1ccc(S(N)(=O)=O)cc1 [p-TSA, para-toluenesulfonamide]
anti-proliferative effect, clonogenic assay ([2]; PC-3, 10 days, FIG. 1B): long-term anti-proliferative effect
anti-proliferative effect, clonogenic assay [3]: long-term anti-proliferative effect
cell apoptosis [4]: accelerated cell apoptosis
distribution of cell populations in cell cycle phases [4]: accumulation of both PC-3 cells and DU-145 cells in G1 phase
cell apoptosis [5]: accelerated cell apoptosis
distribution of cell populations in cell cycle phases [5]: accumulation of both PC-3 cells and DU-145 cells in G1 phase
mitochondrial membrane potential [6]: concentration-dependent decrease
mitochondrial membrane potential [7]: concentration-dependent decrease
